{
  "source": "patent US10130590B2",
  "about": "“Methods of treating cancer with atovaquone-related compounds” (DANA-FARBER CANCER INSTITUTE, INC., priority 2013, dated 2018)",
  "tested_on": "STAT3",
  "experiment": "Western blot of STAT3 phosphorylation in reporter and cancer cell lines",
  "format": "cell-based, human",
  "description": "Western blotting was performed as previously described (Battle T E, Arbiser J, & Frank D A (2005) The natural product honokiol induces caspase dependent apoptosis in B-cell chronic lymphocytic leukemia (B-CLL) cells. Blood 106(2):690-697). Antibodies to phospho-MAPK (9101), total MAPK (9102), phospho-Y705 STAT3 (9131), phospho-S6 (2215), total S6 (2217), phospho-4E-BP1 (9451), total 4E-BP1 (9644), total RSK (9355), phospho-S6K (9234, 85 used at 1:5000), total S6K (2708), phospho-eIF2α (9721, used at 1:1000), total eIF2α (5324), ATF4 (11815, used at 1:1000), PDGFRβ (3169), IGF1Rβ (9750), EGFR (2232), and HER2 (2242) were from Cell Signaling Technology. Phospho-RSK antibody was from R&D (AF889). Antibodies to total STAT3 (sc-482) and gp130 (sc-656, used at 1:1000) were from Santa Cruz Biotechnology. Phospho-S727 STAT3 antibody was described previously (229). REDD1 antibody was from Proteintech (10638-1-AP, used at 1:1000). Antibody recognizing full-length and cleaved ATF6 was from Abcam (ab122897, used at 1:1000). Antibodies to tubulin (T5168) and beta actin (A5316) were from Sigma. All antibodies were used at 1:10000 dilution for western blot unless otherwise noted. For immunoprecipitations, cells were lysed in 500 μl lysis buffer (0.5% NP-40, 150 mM NaCl, 50 mM Tris pH 7.5, with protease and phosphatase inhibitors freshly added at 1:100 [Pierce, PI78443]) on ice for 15 minutes, then centrifuged for 10 minutes at 14,000 RPM and 4° C. The supernatant was transferred to a new tube and incubated with 10 μl JAK2 antibody (Santa Cruz sc-278) or a mix of two TYK2 antibodies, 10 μl of each (Santa Cruz sc-5271 and Cell Signaling Technology 9312). Immunoprecipitation was performed overnight at 4° C. with rotation. The next day, 75 μl of protein A/G beads (Santa Cruz sc-2003) were washed twice in lysis buffer, then incubated with immunoprecipitates overnight as before. The next day, the beads were spun down (1 min. at 7,500 RPM and 4° C.) and washed 3 times with 650 μl lysis buffer for 10 minutes at 4° C. with rotation, then boiled in 50 μl sample buffer+10% β-mercaptoethanol. For Western blot, 20 μl were loaded per lane. For detection of phospho-tyrosine, a mixture of two pan-phospho-tyrosine antibodies (Cell Signaling Technology 9411 and 9416, 1:1000 of each) was used. Antibody to phospho-Y1007/1008 JAK2 was from Cell Signaling 86 Technology (3771, used at 1:1000). Antibody to phospho-Y570 JAK2 was from Millipore (09-241, used at 1:1000). Luminometric Assays Luciferase reporter cell lines were described previously (186). Firefly luciferase values were normalized by concurrent cell viability. Cell viability was measured as ATP-dependent luminescence by Cell Titer Glo (Promega).\nThe mechanism by which atovaquone inhibits STAT3 was investigated. STAT3-luc reporter cells were pre-treated with atovaquone (20 μM) for 1 hr, and then stimulated with IL-6 (10 ng/ml) for 15 minutes, 30 minutes, 1 hours, or 2 hours. Since STAT3 transcriptional activity is critically dependent on tyrosine phosphorylation, Western blotting was performed to see if atovaquone affected STAT3 phosphorylation. […] Next, atovaquone was used to treat U266 (2.5 hours), HEL (6 hours), or INA-6 cells (4 hours). […] In U266 and INA-6 cells, the source of STAT3 activation is JAK-dependent IL-6 signaling, while in HEL cells, STAT3 is activated by mutant JAK2-V617F. Given that atovaquone inhibits constitutive STAT3 activation in cancer cells, it was asked whether atovaquone inhibits expression of endogenous STAT3 target genes in this context.\nSince atovaquone reduced gp130 expression at the cell surface, it was asked whether this effect was accompanied by reduced total gp130 in the cell. To address this question, a time course of atovaquone treatment was performed and total cellular gp130 was measured by Western blotting in U266 cells treated with atovaquone at 20 μM. […]",
  "data": [
    {"smiles": "O=C1C(O)=C([C@H]2CC[C@H](c3ccc(Cl)cc3)CC2)C(=O)c2ccccc21", "note": "[atovaquone, trans-2-[4-(4-chlorophenyl)cyclohexyl]-3-hydroxy-1,4-naphthalenedione]", "values": [
      {"measurement": "STAT3 tyrosine phosphorylation following IL-6 stimulation", "setting": "STAT3 reporter cells, 20 μM pre-treatment 1 hr, IL-6 (10 ng/ml)", "result": "reduced STAT3 tyrosine phosphorylation"},
      {"measurement": "constitutive STAT3 tyrosine phosphorylation", "setting": "U266 (2.5 hours), HEL (6 hours), INA-6 (4 hours)", "result": "inhibited constitutive STAT3 tyrosine phosphorylation"},
      {"measurement": "time after which STAT3 phosphorylation was inhibited", "setting": "U266, 20 μM, time course", "result": 10, "unit": "min"},
      {"measurement": "STAT3 serine phosphorylation", "setting": "U266, HEL, INA-6 cells", "result": "not affected"},
      {"measurement": "inhibition of STAT3 phosphorylation after cycloheximide pre-treatment", "setting": "U266, cycloheximide 2 μg/ml 1 hour, atovaquone 15 μM 2.5 hours", "result": "did not affect the inhibition of STAT3 phosphorylation"}
    ]}
  ]
}
